Results: ChEMBL document CHEMBL4800722, “Data for DCP probe BI 605906” (2021)
Activity calls are given as the source filed them.

Assays:
[1] = biological target: Inhibitor of nuclear factor kappa-B kinase subunit beta (Homo sapiens, UniProt O14920); experiment: Biochemical assay
[2] = biological target: AMPK alpha2/beta2/gamma1 (Homo sapiens) (UniProt P54646+O43741+P54619); experiment: AMPK (A2/B2/G1) Invitrogen Lab (UK) kinase screen (BI); format: protein-complex assay; details: Compound concentration 1.0 uM
[3] = biological target: CDK2/Cyclin O (Homo sapiens) (UniProt P24941+P22674); experiment: CDK2/CYCLIN O Invitrogen Lab (UK) kinase screen (BI); format: protein-complex assay; details: Compound concentration 1.0 uM
[4] = biological target: Dual specificity mitogen-activated protein kinase kinase 5 (Homo sapiens) (UniProt Q13163); experiment: MAP2K5 Invitrogen Lab (UK) kinase screen (BI); details: Compound concentration 1.0 uM
[5] = biological target: Phosphatidylinositol 3-kinase regulatory subunit beta/Phosphatidylinositol 4,5-bisphosphate 3-kinase catalytic subunit beta isoform (Homo sapiens) (UniProt P42338+O00459); experiment: PIK3CB/PIK3R2 Invitrogen Lab (UK) kinase screen (BI); format: protein-complex assay; details: Compound concentration 1.0 uM
[6] = biological target: Serine/threonine-protein kinase N2 (Homo sapiens) (UniProt Q16513); experiment: PKN2 Invitrogen Lab (UK) kinase screen (BI); details: Compound concentration 1.0 uM
[7] = biological target: ALK tyrosine kinase receptor (Homo sapiens) (UniProt Q9UM73); experiment: ALK Invitrogen Lab (UK) kinase screen (BI)
[8] = biological target: MAP kinase-interacting serine/threonine-protein kinase 2 (Homo sapiens) (UniProt Q9HBH9); experiment: MKNK2 (MNK2) Invitrogen Lab (UK) kinase screen (BI); details: Compound concentration 1.0 uM
[9] = biological target: Serine/threonine-protein kinase 3 (Homo sapiens) (UniProt Q13188); experiment: STK3 Invitrogen Lab (UK) kinase screen (BI); details: Compound concentration 1.0 uM
[10] = biological target: Mitogen-activated protein kinase 10 (Homo sapiens) (UniProt P53779); experiment: JNK3 ALPHA 1 DUNDEE kinase screen (BI); details: Compound concentration 10.0 uM
[11] = biological target: Rho-associated protein kinase 2 (Homo sapiens) (UniProt O75116); experiment: ROCKII DUNDEE kinase screen (BI); details: Rattus norvegicus; Compound concentration 10.0 uM
[12] = biological target: Cannabinoid receptor 2 (Homo sapiens) (UniProt P34972); details: Compound concentration 10.0 uM
[13] = biological target: Prostaglandin G/H synthase 2 (Homo sapiens) (UniProt P35354); details: Compound concentration 10.0 uM
[14] = biological target: CDK4/Cyclin D3 (Homo sapiens) (UniProt P11802+P30281); details: Compound concentration 1.0 uM
[15] = biological target: Hormonally up-regulated neu tumor-associated kinase (Homo sapiens) (UniProt P57058); details: Compound concentration 1.0 uM
[16] = biological target: Mitogen-activated protein kinase kinase kinase kinase 1 (Homo sapiens) (UniProt Q92918); details: Compound concentration 1.0 uM
[17] = biological target: Mitogen-activated protein kinase kinase kinase kinase 3 (Homo sapiens) (UniProt Q8IVH8); details: Compound concentration 1.0 uM
[18] = biological target: Serine/threonine-protein kinase Nek8 (Homo sapiens) (UniProt Q86SG6); details: Compound concentration 1.0 uM
[19] = biological target: Inactive tyrosine-protein kinase PEAK1 (Homo sapiens) (UniProt Q9H792); details: Compound concentration 1.0 uM
[20] = biological target: Membrane-associated tyrosine- and threonine-specific cdc2-inhibitory kinase (Homo sapiens) (UniProt Q99640); details: Compound concentration 1.0 uM
[21] = biological target: Serine/threonine-protein kinase 32B (Homo sapiens) (UniProt Q9NY57); details: Compound concentration 1.0 uM
[22] = biological target: Tyrosine-protein kinase ABL2 (Homo sapiens) (UniProt P42684); details: Compound concentration 1.0 uM
[23] = biological target: AMP-activated protein kinase (AMPK) alpha-1/beta-1/gamma-1 (Homo sapiens) (UniProt P54619+Q9Y478+Q13131)
Sequence of AMP-activated protein kinase (AMPK) alpha-1/beta-1/gamma-1 (Homo sapiens) (P54619 whole entry): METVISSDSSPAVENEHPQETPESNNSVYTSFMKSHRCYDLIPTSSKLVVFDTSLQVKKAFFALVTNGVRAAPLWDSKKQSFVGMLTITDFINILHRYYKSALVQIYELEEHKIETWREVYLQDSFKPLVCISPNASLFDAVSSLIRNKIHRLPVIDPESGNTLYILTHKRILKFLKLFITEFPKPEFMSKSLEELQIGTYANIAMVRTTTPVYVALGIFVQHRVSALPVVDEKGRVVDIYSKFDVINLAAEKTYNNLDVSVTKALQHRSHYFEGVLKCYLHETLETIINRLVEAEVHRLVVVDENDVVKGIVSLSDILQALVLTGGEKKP
Sequence of AMP-activated protein kinase (AMPK) alpha-1/beta-1/gamma-1 (Homo sapiens) (Q13131 whole entry partner): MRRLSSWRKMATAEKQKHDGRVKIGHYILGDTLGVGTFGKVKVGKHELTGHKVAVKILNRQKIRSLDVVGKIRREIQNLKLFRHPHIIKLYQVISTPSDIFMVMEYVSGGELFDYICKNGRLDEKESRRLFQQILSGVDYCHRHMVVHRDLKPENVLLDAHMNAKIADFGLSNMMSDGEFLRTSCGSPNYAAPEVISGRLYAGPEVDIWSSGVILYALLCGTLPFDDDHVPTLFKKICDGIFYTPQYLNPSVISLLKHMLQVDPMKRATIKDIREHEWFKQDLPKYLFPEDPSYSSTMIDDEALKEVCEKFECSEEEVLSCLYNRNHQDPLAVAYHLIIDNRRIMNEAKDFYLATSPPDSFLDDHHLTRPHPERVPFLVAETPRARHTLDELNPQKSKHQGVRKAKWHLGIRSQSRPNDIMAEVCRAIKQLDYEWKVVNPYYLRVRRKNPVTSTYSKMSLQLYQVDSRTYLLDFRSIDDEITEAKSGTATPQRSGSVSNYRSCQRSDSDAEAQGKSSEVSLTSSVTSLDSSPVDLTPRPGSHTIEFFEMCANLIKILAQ
Sequence of AMP-activated protein kinase (AMPK) alpha-1/beta-1/gamma-1 (Homo sapiens) (Q9Y478 2-270 partner limits assumed): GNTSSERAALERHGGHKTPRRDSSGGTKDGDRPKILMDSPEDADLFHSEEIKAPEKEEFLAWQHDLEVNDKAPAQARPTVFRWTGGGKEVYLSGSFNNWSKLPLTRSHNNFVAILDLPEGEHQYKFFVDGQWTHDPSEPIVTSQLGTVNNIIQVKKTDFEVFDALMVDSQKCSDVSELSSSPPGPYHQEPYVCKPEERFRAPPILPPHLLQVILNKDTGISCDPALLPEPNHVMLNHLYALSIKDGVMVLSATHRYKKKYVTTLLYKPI

[24] = biological target: Calcium/calmodulin-dependent protein kinase type II subunit delta (Homo sapiens) (UniProt Q13557); details: Compound concentration 1.0 uM
[25] = biological target: Cyclin-dependent kinase 1/cyclin B (Homo sapiens) (UniProt P06493+P14635+Q8WWL7+O95067)
[26] = biological target: Casein kinase I isoform gamma-2 (Homo sapiens) (UniProt P78368)
Sequence of Casein kinase I isoform gamma-2 (Homo sapiens) (P78368 whole entry, looked up, canonical isoform): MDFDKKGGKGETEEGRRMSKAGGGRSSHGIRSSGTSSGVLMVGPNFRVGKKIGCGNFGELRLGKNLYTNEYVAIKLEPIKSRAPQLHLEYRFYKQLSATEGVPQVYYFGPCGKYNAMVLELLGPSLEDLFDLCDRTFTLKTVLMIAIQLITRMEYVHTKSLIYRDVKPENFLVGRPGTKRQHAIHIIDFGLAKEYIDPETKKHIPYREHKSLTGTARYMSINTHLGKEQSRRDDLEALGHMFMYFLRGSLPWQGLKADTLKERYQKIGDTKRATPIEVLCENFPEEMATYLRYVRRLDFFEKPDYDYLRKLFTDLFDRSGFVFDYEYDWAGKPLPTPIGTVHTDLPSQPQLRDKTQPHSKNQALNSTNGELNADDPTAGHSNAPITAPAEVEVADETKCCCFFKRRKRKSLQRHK

[27] = biological target: Ephrin type-A receptor 2 (Homo sapiens) (UniProt P29317)
Sequence of Ephrin type-A receptor 2 (Homo sapiens) (P29317 whole entry): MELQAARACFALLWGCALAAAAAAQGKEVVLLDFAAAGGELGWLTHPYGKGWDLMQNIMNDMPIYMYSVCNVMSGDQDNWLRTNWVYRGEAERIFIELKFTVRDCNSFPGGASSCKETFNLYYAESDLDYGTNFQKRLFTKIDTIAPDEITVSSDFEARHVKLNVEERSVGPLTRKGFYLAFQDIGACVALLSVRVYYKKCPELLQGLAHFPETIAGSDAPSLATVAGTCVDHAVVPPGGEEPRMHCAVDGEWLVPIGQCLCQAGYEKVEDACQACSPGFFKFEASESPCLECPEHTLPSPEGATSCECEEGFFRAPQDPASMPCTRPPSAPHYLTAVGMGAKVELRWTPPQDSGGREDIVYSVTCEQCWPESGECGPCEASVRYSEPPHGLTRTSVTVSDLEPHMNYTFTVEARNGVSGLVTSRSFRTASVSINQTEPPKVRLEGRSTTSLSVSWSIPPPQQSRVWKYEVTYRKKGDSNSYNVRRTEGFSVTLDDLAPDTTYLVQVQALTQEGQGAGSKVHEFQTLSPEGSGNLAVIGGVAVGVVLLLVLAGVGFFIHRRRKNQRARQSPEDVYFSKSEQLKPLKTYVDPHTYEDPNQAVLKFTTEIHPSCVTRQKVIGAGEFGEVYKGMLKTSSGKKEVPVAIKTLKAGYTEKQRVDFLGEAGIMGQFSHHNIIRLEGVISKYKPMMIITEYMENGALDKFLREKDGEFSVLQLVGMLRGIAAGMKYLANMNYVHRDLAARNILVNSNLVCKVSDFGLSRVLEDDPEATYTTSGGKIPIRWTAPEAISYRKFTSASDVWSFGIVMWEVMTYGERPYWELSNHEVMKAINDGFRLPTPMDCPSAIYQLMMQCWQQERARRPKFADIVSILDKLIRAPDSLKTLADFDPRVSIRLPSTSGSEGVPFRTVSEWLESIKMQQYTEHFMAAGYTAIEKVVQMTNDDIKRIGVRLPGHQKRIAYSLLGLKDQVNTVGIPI

[28] = biological target: Receptor tyrosine-protein kinase erbB-2 (Homo sapiens) (UniProt P04626)
Sequence of Receptor tyrosine-protein kinase erbB-2 (Homo sapiens) (P04626 whole entry): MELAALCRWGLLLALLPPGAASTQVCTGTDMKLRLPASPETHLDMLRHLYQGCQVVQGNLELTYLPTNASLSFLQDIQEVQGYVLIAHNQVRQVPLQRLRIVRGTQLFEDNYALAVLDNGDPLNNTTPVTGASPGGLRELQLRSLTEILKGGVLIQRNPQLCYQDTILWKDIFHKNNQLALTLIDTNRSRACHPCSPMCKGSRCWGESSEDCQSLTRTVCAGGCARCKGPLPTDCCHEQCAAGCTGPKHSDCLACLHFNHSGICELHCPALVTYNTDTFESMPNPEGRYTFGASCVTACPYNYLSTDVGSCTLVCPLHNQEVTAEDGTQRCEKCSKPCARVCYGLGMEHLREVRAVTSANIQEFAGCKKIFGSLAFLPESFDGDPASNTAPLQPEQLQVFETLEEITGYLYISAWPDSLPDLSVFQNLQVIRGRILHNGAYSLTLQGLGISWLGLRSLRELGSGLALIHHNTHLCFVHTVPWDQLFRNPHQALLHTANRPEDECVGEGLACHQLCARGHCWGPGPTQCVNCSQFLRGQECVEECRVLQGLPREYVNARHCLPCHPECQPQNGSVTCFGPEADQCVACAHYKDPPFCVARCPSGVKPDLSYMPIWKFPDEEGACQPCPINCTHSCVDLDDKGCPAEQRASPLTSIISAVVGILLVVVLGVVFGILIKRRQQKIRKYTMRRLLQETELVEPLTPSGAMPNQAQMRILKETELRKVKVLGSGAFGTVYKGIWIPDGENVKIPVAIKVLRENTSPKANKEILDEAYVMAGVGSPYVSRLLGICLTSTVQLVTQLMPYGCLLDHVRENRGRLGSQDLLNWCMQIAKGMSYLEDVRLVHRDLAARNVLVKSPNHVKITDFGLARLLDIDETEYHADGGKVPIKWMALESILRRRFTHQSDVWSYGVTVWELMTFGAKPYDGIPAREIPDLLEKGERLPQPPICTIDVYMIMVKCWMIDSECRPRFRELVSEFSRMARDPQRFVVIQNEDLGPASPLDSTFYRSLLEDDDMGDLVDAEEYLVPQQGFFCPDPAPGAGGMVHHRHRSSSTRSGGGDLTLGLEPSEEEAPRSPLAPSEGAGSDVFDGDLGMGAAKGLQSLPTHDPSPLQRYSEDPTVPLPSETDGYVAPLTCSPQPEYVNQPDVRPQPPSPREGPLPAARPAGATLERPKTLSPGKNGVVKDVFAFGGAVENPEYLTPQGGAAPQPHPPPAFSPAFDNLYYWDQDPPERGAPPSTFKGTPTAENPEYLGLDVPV

[29] = biological target: Receptor-type tyrosine-protein kinase FLT3 (Homo sapiens) (UniProt P36888)
Sequence of Receptor-type tyrosine-protein kinase FLT3 (Homo sapiens) (P36888 whole entry): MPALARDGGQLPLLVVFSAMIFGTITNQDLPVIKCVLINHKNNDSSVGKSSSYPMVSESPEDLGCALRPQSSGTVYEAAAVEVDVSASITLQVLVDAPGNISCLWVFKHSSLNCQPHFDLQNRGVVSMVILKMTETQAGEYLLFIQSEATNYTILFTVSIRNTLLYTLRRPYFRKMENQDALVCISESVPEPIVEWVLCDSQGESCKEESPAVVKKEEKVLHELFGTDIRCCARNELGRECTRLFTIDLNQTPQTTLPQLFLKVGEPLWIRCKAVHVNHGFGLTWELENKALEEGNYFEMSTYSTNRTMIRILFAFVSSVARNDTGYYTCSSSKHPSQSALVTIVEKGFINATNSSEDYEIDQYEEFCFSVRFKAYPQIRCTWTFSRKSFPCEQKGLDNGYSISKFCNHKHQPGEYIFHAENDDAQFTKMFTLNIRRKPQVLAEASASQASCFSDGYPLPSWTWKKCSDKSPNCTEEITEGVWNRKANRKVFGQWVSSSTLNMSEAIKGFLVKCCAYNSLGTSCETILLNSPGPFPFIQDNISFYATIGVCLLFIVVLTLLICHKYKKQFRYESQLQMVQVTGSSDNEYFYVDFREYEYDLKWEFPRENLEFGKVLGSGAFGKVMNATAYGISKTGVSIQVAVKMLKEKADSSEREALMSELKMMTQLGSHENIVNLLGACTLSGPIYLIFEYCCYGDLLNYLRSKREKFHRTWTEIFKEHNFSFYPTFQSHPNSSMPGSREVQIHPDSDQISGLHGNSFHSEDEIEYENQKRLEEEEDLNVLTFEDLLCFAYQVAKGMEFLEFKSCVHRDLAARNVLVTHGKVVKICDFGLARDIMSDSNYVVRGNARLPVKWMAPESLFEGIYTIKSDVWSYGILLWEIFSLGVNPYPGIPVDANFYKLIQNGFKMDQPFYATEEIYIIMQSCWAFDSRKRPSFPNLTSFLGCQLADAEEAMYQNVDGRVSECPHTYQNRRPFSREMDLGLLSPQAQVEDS

[30] = biological target: Tyrosine-protein kinase JAK2 (Homo sapiens) (UniProt O60674); details: Compound concentration 1.0 uM
[31] = biological target: Serine/threonine-protein kinase PAK 2 (Homo sapiens) (UniProt Q13177); details: Compound concentration 1.0 uM
[32] = biological target: Platelet-derived growth factor receptor alpha (Homo sapiens) (UniProt P16234); details: Compound concentration 1.0 uM
[33] = biological target: Protein kinase C beta type (Homo sapiens) (UniProt P05771); details: Compound concentration 1.0 uM
[34] = biological target: Protein kinase C theta type (Homo sapiens) (UniProt Q04759); details: Compound concentration 1.0 uM
[35] = biological target: Proto-oncogene tyrosine-protein kinase ROS (Homo sapiens) (UniProt P08922); details: Compound concentration 1.0 uM
[36] = biological target: Ribosomal protein S6 kinase alpha-1 (Homo sapiens) (UniProt Q15418); details: Compound concentration 1.0 uM
[37] = biological target: Ribosomal protein S6 kinase alpha-2 (Homo sapiens) (UniProt Q15349); details: Compound concentration 1.0 uM
[38] = biological target: SRSF protein kinase 3 (Homo sapiens) (UniProt Q9UPE1); details: Compound concentration 1.0 uM
[39] = biological target: Tyrosine-protein kinase Tec (Homo sapiens) (UniProt P42680); details: Compound concentration 1.0 uM
[40] = biological target: Tyrosine-protein kinase receptor TYRO3 (Homo sapiens) (UniProt Q06418); details: Compound concentration 1.0 uM
[41] = biological target: Serine/threonine-protein kinase Sgk1 (Homo sapiens) (UniProt O00141); details: Compound concentration 10.0 uM

CCC(F)(F)c1cc(N2CCC(S(C)(=O)=O)CC2)nc2sc(C(N)=O)c(N)c12 [BI-605906]
inactive: residual activity [2] 88% | residual activity [3] 81% | residual activity [4] 107% | residual activity [5] 112% | residual activity [6] 86% | residual activity ([7]; Compound concentration 1.0 uM) 80% | residual activity ([7]; Compound concentration 10.0 uM) 74% | residual activity [8] 68% | residual activity [9] 103% | residual activity [10] 72.4% | residual activity [12] 91% | residual activity [13] 82% | residual activity [14] 97% | residual activity [15] 97% | residual activity [16] 82% | residual activity [17] 93% | residual activity [18] 95% | residual activity [19] 94% | residual activity [20] 90% | residual activity [21] 96% | residual activity [22] 91% | residual activity ([23]; Compound concentration 1.0 uM) 95% | residual activity ([23]; Compound concentration 10.0 uM) 80% | residual activity [24] 96% | residual activity ([25]; Compound concentration 1.0 uM) 92% | residual activity ([25]; Compound concentration 10.0 uM) 94% | residual activity ([26]; Compound concentration 1.0 uM) 96% | residual activity ([26]; Compound concentration 10.0 uM) 94% | residual activity ([27]; Compound concentration 1.0 uM) 93% | residual activity ([27]; Compound concentration 10.0 uM) 63% | residual activity ([28]; Compound concentration 1.0 uM) 96% | residual activity ([28]; Compound concentration 10.0 uM) 86% | residual activity ([29]; Compound concentration 1.0 uM) 71% | residual activity [30] 94% | residual activity [31] 95% | residual activity [32] 93% | residual activity [33] 99% | residual activity [34] 101% | residual activity [35] 94% | residual activity [36] 94% | residual activity [37] 96% | residual activity [38] 99% | residual activity [39] 96% | residual activity [40] 94% | residual activity [41] 101%
active: IC50 [1] 49 nM | residual activity [11] 40.1% | residual activity ([29]; Compound concentration 10.0 uM) 38%
